Source: ChEMBL document CHEMBL5335865, “Macrocyclic Oxindole Peptide Epoxyketones-A Comparative Study of Macrocyclic Inhibitors of the 20S Proteasome” (ACS Med Chem Lett, 2024)
Active and inactive are the calls of the source.

Legend:
[1] = target: T1, 20S proteasome (Homo sapiens) (UniProt P49721+P20618+P28074+P28062+P28065+P28072+P25786+P25787+P25788+P25789+P28066+P60900+O14818+Q8TAA3+P40306+A5LHX3+P49720+P28070+Q99436); assay: Inhibition of human 20S proteasome trypsin-like activity using Ac-RLR-AMC as a fluorogenic substrate at 130 uM measured every 20 seconds for 10 mins by fluorescence based assay; type: protein-complex assay
[2] = target: T1, 20S proteasome (Homo sapiens); assay: Inhibition of human 20S proteasome PGPH-like activity using Cbz-LLE-AMC as a fluorogenic substrate at 130 uM measured every 20 seconds for 10 mins by fluorescence based assay; type: protein-complex assay
[3] = target: Chymotrypsin (UniProt Q99895+P17538+P40313+Q6GPI1); assay: Inhibition of chymotrypsin (unknown origin) using Suc-LLVY-AMC as fluorogenic substrate at 130 uM measured every 20 seconds for 10 mins by fluorescence based assay; type: protein assay; conditions: Homo sapiens
[4] = target: Cathepsin B (Homo sapiens) (UniProt P07858); assay: Inhibition of human liver cathepsin B using Cbz-Arg-Arg-AMC as fluorogenic substrate at 130 uM measured every 20 seconds for 10 mins by fluorescence based assay
[5] = target: Calpain-2 catalytic subunit (Homo sapiens) (UniProt P17655); assay: Inhibition of m-calpain (unknown origin) using Suc-LLVY-AMC as fluorogenic substrate at 130 uM measured every 20 seconds for 10 mins by fluorescence based assay

Measured: inhibition

Chymotrypsin, sequence (P17538 whole entry, looked up): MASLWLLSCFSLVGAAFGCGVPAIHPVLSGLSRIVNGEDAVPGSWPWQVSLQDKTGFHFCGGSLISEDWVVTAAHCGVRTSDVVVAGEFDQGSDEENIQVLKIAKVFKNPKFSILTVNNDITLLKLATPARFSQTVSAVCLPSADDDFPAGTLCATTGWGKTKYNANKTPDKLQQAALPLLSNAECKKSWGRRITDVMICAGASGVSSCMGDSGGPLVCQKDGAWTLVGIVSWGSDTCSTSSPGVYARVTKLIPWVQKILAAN
Chymotrypsin, sequence (P40313 whole entry, looked up): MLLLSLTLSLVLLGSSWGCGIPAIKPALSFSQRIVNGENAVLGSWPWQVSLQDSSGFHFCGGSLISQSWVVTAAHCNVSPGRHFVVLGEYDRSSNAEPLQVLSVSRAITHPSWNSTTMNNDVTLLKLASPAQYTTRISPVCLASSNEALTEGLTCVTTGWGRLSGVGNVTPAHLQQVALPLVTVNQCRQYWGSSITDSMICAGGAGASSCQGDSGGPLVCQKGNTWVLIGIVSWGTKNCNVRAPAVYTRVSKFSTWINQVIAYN
Chymotrypsin, sequence (Q6GPI1 whole entry, looked up): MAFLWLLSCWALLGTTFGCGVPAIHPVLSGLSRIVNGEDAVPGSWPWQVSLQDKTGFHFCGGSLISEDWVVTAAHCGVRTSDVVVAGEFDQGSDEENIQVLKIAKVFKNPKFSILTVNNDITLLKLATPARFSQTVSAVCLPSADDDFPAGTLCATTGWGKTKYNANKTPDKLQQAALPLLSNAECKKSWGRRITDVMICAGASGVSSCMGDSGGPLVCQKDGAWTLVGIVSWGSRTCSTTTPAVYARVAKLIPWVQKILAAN
Chymotrypsin, sequence (Q99895 whole entry, looked up): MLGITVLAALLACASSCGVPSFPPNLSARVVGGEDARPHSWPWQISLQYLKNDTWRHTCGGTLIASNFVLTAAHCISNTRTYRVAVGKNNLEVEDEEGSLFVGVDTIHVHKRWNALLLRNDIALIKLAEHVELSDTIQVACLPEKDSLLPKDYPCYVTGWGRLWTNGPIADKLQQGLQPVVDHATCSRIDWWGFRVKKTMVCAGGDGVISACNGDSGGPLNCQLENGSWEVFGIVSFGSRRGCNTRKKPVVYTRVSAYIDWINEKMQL
Calpain-2 catalytic subunit (Homo sapiens), sequence (P17655 whole entry, looked up): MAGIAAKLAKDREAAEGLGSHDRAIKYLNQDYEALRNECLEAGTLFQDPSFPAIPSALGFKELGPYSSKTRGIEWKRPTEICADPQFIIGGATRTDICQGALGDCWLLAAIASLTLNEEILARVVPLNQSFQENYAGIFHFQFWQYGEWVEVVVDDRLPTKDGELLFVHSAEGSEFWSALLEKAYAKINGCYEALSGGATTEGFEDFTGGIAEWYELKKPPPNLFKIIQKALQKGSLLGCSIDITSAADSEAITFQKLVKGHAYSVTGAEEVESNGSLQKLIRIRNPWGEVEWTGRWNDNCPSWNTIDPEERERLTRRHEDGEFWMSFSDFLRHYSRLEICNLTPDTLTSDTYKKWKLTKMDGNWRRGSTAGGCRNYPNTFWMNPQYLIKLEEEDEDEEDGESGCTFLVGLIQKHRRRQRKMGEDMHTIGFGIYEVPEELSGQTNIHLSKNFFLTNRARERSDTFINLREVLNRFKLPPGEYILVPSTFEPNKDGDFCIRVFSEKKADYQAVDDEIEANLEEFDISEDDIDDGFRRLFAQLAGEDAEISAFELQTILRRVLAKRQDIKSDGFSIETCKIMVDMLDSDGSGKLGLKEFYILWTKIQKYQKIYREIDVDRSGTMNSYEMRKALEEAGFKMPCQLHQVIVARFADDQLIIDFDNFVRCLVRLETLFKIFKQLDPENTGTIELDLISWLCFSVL

CC(=O)N[C@H]1Cc2ccc([N+](=O)[O-])c(c2)Oc2ccc(cc2)C[C@@H](C(=O)N[C@@H](CC(C)C)C(=O)[C@@]2(C)CO2)NC(=O)[C@H](CC(C)C)NC1=O
inactive: all assays above

CC(=O)N[C@H]1Cc2ccc([N+](=O)[O-])c(c2)Oc2ccc(cc2)CC[C@@H](C(=O)N[C@@H](CC(C)C)C(=O)[C@@]2(C)CO2)NC(=O)[C@H](CC(C)C)NC1=O
inactive: all assays above

CC(=O)N[C@H]1Cc2ccc([N+](=O)[O-])c(c2)Oc2ccc3c(c2)C(C[C@@H](C(=O)N[C@@H](CC(C)C)C(=O)[C@@]2(C)CO2)NC(=O)[C@H](CC(C)C)NC1=O)C(=O)N3 (some centres undefined)
not listed: [2]
inactive: all other assays above

CC(=O)N[C@H]1Cc2ccc([N+](=O)[O-])c(c2)Oc2ccc3c(c2)C(C[C@@H](C(=O)N[C@@H](CC(C)C)C(N)=O)NC(=O)[C@H](CC(C)C)NC1=O)C(=O)N3 (some centres undefined)
not listed: [1]
inactive: all other assays above

CC(C)C[C@H](NC(=O)[C@H](CCc1ccccc1)NC(=O)CN1CCOCC1)C(=O)N[C@@H](Cc1ccccc1)C(=O)N[C@@H](CC(C)C)C(=O)[C@@]1(C)CO1
not listed: [2]
inactive: all other assays above

CC(C)C[C@@H](C=O)NC(=O)[C@@H]1Cc2ccc(cc2)Oc2cc(ccc2[N+](=O)[O-])C[C@H](NC(=O)OCc2ccccc2)C(=O)N[C@@H](CC(C)C)C(=O)N1
inactive: [1] | [3]

CC(=O)N[C@@H](Cc1ccc([N+](=O)[O-])c(F)c1)C(=O)N[C@@H](CC(C)C)C(=O)N[C@@H](CC1C(=O)Nc2ccc(O)cc21)C(=O)N[C@@H](CC(C)C)C(=O)[C@@]1(C)CO1 (some centres undefined)
inactive: all assays above
